# Test results taken from paper PMC4785407, “Reduction Impairs the Antibacterial Activity but Benefits the LPS Neutralization Ability of Human Enteric Defensin 5” (Scientific Reports, 2016).
# Bridge positions count the residues as written; N and C are the ends. Peptide text beside a SMILES is read from it.
# Experiments:
# [1] = cited from earlier work
# Text: Upon examining the biochemical properties of synthetic IDRs, the structural flexibility was noted. For example, the bovine bactenecin linear derivative 1018 adopts various folds in different media, relative to the natural peptide, to adapt to different functions. […] It can be exp ...
# HIV gp-120 = conditions: cited from earlier work
# [2] = tested on: E. coli ML35 inner membrane; test: Inner membrane permeabilization (ONPG); format: cell-based; conditions: 6.25 and 12.5 μg/mL, 37 °C, 2 h, absorbance 405 nm, vs HD5OX
# Protocol: The production of 2-nitrophenol (ONP), a marker of inner membrane penetration, was determined by measuring the absorbance at 405 nm.
SMILES,LPS binding [1],binding and inhibition of HIV gp-120 (HIV gp-120),inner membrane disintegration [2]
"CC[C@H](C)[C@@H]1NC(=O)[C@H](CCC(=O)O)NC(=O)[C@@H]2CSSC[C@@H]3NC(=O)[C@H](Cc4ccc(O)cc4)NC(=O)[C@@H](NC(=O)[C@@H](NC(=O)[C@H](C)N)[C@@H](C)O)CSSC[C@@H](C(=O)N[C@@H](CCCNC(=N)N)C(=O)O)NC(=O)[C@H](CSSC[C@H](NC(=O)[C@H](CCCNC(=N)N)NC(=O)CNC(=O)[C@H]([C@@H](C)O)NC(=O)[C@H](CCCNC(=N)N)NC3=O)C(=O)N[C@@H](C)C(=O)N[C@@H]([C@@H](C)O)C(=O)N[C@@H](CCCNC(=N)N)C(=O)N[C@@H](CCC(=O)O)C(=O)N[C@@H](CO)C(=O)N[C@@H](CC(C)C)C(=O)N[C@@H](CO)C(=O)NCC(=O)N[C@@H](C(C)C)C(=O)N2)NC(=O)[C@H](CC(C)C)NC(=O)[C@H](CCCNC(=N)N)NC(=O)[C@H](Cc2ccc(O)cc2)NC(=O)[C@H](CC(C)C)NC(=O)[C@H](CCCNC(=N)N)NC(=O)CNC(=O)[C@H](CO)NC1=O [HD5OX, Oxidized human defensin 5] (H-ATCYCRTGRCATRESLSGVCEISGRLYRLCCR-OH; disulfide 3-31, 5-20, 10-30; N-terminus and C-terminus assumed)",can bind LPS,efficiently bind and inhibit,–
CC[C@H](C)[C@H](NC(=O)[C@H](CCC(=O)O)NC(=O)[C@H](CS)NC(=O)[C@@H](NC(=O)CNC(=O)[C@H](CO)NC(=O)[C@H](CC(C)C)NC(=O)[C@H](CO)NC(=O)[C@H](CCC(=O)O)NC(=O)[C@H](CCCNC(=N)N)NC(=O)[C@@H](NC(=O)[C@H](C)NC(=O)[C@H](CS)NC(=O)[C@H](CCCNC(=N)N)NC(=O)CNC(=O)[C@@H](NC(=O)[C@H](CCCNC(=N)N)NC(=O)[C@H](CS)NC(=O)[C@H](Cc1ccc(O)cc1)NC(=O)[C@H](CS)NC(=O)[C@@H](NC(=O)[C@H](C)N)[C@@H](C)O)[C@@H](C)O)[C@@H](C)O)C(C)C)C(=O)N[C@@H](CO)C(=O)NCC(=O)N[C@@H](CCCNC(=N)N)C(=O)N[C@@H](CC(C)C)C(=O)N[C@@H](Cc1ccc(O)cc1)C(=O)N[C@@H](CCCNC(=N)N)C(=O)N[C@@H](CC(C)C)C(=O)N[C@@H](CS)C(=O)N[C@@H](CS)C(=O)N[C@@H](CCCNC(=N)N)C(=O)O [HD5RED] (H-ATCYCRTGRCATRESLSGVCEISGRLYRLCCR-OH),–,–,attenuated potency for disintegrating the bacterial inner membrane
